Tests used:
Solubility test = type: physicochemical; settings: JP-I medium with 2% DMSO, pH 1.2, simulated gastric fluid, kinetic from dmso stock, turbidity after 4 hours
Description: A 2-fold dilution series (12 points) of a 10 mM solution of a test compound in DMSO was added to a medium (JP-I, JP-II) (2%), and solubility was assessed by 3 stages (High; >40 μM, Medium; 3-40 μM, Low; <3 μM) from a turbidity after 4 hours (crystallization information).

Metabolic stability test = type: in vitro ADME; settings: human liver microsomes 0.5 mg protein/mL, 1 mmol/L NADPH, 30 minutes at 37° C.
Description: The target compound was reacted with commercially available pooled human liver microsomes for a predetermined time period. The residual rate was calculated by comparing the reacted sample and unreacted sample, and thus the degree of metabolism in liver was evaluated.
In 0.2 mL of a buffer (50 mmol/L tris-HCl pH 7.4, 150 mmol/L potassium chloride, 10 mmol/L magnesium chloride) containing human liver microsomes 0.5 mg protein/mL, reaction was carried out in the presence of 1 mmol/L NADPH for 0 minute or 30 minutes at 37° C. (oxidative reaction). After the reaction, 50 μL of the reaction solution was added to and mixed with 100 μL of a solution of methanol/acetonitrile=1/1 (v/v), and the mixture was centrifuged for 15 minutes at 3000 rpm. The test compound in the centrifuged supernatant was quantified by LC/MS/MS, and the residual amount of the test compound after the reaction was calculated based on the compound amount at O-minute reaction set as 100%.

Recombinant human BACE1 = target: T1, Recombinant human BACE1 (Homo sapiens, UniProt P56817); assay: Assay of BACE1 inhibiting activity; type: biochemical; settings: 50% inhibitory concentration against enzymatic activity, pH 5.0, 30° C., 3 hours
T1 construct: purchased R&D Systems
Description: 48.5 μL of substrate peptide solution (Biotin-XSEVNLDAEFRHDSGC-Eu: Xεε-amino-n-capronic acid, Eu=Europium cryptate) was added to each well of 96-hole half-area plate (a black plate: Costar Corporation), and after addition of 0.5 μl of the test compound (dissolved in […]) and 1 μl of Recombinant human BACE1 (R&D Systems), the reaction mixture was incubated at 30° C. for 3 hours. The substrate peptide was synthesized by reacting Cryptate TBPCOOH mono SMP (CIS bio international) with Biotin-XSEVNLDAEFRHDSGC (Peptide Institute, Inc.). The final concentrations of the substrate peptide and Recombinant human BACE1 were adjusted to 18 nM and 7.4 nM respectively, and the reaction was performed in sodium acetate buffer (50 mM sodium acetate, pH 5.0, 0.008% Triton X-100). After the completion of reaction, 50 μl of 8.0 μg/ml Streptavidin-XL665 (CIS bio international) dissolved in phosphate buffer (150 mM K2HPO4—KH2PO4, pH 7.0, 0.008% Triton X-100, 0.8 M KF) was added to each well and left stand at 30° C. for an hour. Then, fluorescence intensity was measured (excitation wavelength: 320 nm, measuring wavelength: 620 nm and 665 nm) using Wallac 1420 multilabel counter (Perkin Elmer life sciences). Enzymatic activity was determined from counting ratio of each wavelength (10,000×Count 665/Count 620) and 50% inhibitory concentration against the enzymatic activity was calculated.

BA test = type: in vivo; settings: rat, plasma; SD rats, from AUCs of oral and intravenous administration
Description: Materials and methods for studies on oral absorption
(2) Breeding conditions: rats were allowed to freely take solid feed and sterilized tap water
(3) Dose and grouping: orally or intravenously administered at a predetermined dose; grouping was as follows (Dose depends on the compound)
Oral administration: 1 to 30 mg/kg (n=2 to 3)
Intravenous administration: 0.5 to 10 mg/kg (n=2 to 3)
(4) Preparation of dosing solution: for oral administration, in a solution or a suspension state; for intravenous administration, in a solubilized state
(5) Administration method: in oral administration, forcedly administer into ventriculus with oral probe; in intravenous administration, administer from caudal vein with a needle-equipped syringe
(6) Evaluation items: blood was collected over time, and the plasma concentration of drug was measured by LC/MS/MS
(7) Statistical analysis: regarding the transition of the plasma concentration, the area under the plasma concentration-time curve (AUC) was calculated by non-linear least squares program WinNonlin (Registered trademark), and the bioavailability (BA) was calculated from the AUCs of the oral administration group and intravenous administration group

[1] = system: Neuroblastoma SH-SY5Y cells (SH/APPwt) with human wild-type β-APP excessively expressed; assay: Measurement of β-amyloid (Aβ) production inhibitory effect in cell; type: cell-based; settings: Homo sapiens, SH-SY5Y, 24 h, amount needed to inhibit Aβ production by 50%, 24 hours incubation, Amyloid β1-40 HTRF
Description: Neuroblastoma SH-SY5Y cells (SH/APPwt) with human wild-type β-APP excessively expressed therein were prepared at 8×10^5 cells/mL, and 150 μl portions thereof were inoculated into each well of a 96-well culture plate (Falcon). The cells were cultured for 2 hours at 37° C. in a 5% gaseous carbon dioxide incubator. Then, a solution which had been preliminarily prepared by adding and suspending the test compound (DMSO (dimethyl sulfoxide) solution) so as to be 2 μl/50 μl medium was added to the cell sap. Namely, the final DMSO concentration was 1%, and the amount of the cell culture was 200 μl. After the incubation was performed for 24 hours from the addition of the test compound, 100 μl of the culture supernatant was collected from each fraction. The amount of the Aβ in each fraction was measured.
The […] was measured as follows. 10 μl of a homogeneous time resolved fluorescence (HTRF) measurement reagent (Amyloid β1-40 peptide; IBA Molecular Holding, S.A.) and 10 μl of the culture supernatant were put into a 384-well half area microplate (black microplate, Costar) and mixed with each other, and then left standing overnight at 4° C. while the light was shielded. Then, the fluorescence intensity (excitation wavelength: 337 nm, measurement wavelength: 620 nm and 665 nm) was measured with a Wallac 1420 multilabel counter (Perkin Elmer life sciences). The Aβ amount was determined from the count rate at each measurement wavelength (10000×Count 665/Count 620), and the amount needed to inhibit Aβ production by 50% (IC50) was calculated from at least six different dosages.

CYP2C19 = target: T2, CYP2C19 (Homo sapiens, UniProt P33261); assay: CYP inhibition test (CYP2C19); type: in vitro ADME; settings: pooled human hepatic microsome, mephenyloin 4′-hydroxylation
T2 construct: Enzyme, pooled human hepatic microsome 0.2 mg protein/mL; from tissue; host or cells: pooled human hepatic microsomes
Description: (§1) Using commercially available pooled human hepatic microsome, and employing, as markers, 7-ethoxyresorufin O-deethylation (CYP1A2), tolbutamide methyl-hydroxylation (CYP2C9), mephenyloin 4′-hydroxylation (CYP2C19), dextromethorphan O-demethylation (CYP2D6), and terfenedine hydroxylation as typical substrate metabolism reactions of human main five CYP enzyme forms (CYP1A2, 2C9, 2C19, 2D6, 3A4), an inhibitory degree of each metabolite production amount by a test compound was assessed.
(§2) The reaction conditions were as follows: […]
(§3) Each five kinds of substrates, human hepatic microsome, or a test drug in 50 mM Hepes buffer as a reaction solution was added to a 96-well plate at the composition as described above, NADPH, a cofactor, was added to initiate metabolism reactions as markers and, after the incubation at 37° C. for 15 minutes, a methanol/acetonitrile=1/1 (v/v) solution was added to stop the reaction. After the centrifugation at 3000 rpm for 15 minutes, resorufin (CYP1A2 metabolite) in the supernatant was quantified by a fluorescent multilabel counter and tributamide hydroxide (CYP2CP metabolite), mephenyloin 4′ hydroxide (CYP2C19 metabolite), […], and terfenadine alcohol (CYP3A4 metabolite) were quantified by LC/MS/MS. […]

CYP1A2 = target: T3, CYP1A2 (Homo sapiens, UniProt P05177); assay: CYP inhibition test (CYP1A2); type: in vitro ADME; settings: pooled human hepatic microsome, 7-ethoxyresorufin O-deethylation
T3 construct: Enzyme, pooled human hepatic microsome 0.2 mg protein/mL; from tissue; host or cells: pooled human hepatic microsomes
T3 sequence (P05177 1-516): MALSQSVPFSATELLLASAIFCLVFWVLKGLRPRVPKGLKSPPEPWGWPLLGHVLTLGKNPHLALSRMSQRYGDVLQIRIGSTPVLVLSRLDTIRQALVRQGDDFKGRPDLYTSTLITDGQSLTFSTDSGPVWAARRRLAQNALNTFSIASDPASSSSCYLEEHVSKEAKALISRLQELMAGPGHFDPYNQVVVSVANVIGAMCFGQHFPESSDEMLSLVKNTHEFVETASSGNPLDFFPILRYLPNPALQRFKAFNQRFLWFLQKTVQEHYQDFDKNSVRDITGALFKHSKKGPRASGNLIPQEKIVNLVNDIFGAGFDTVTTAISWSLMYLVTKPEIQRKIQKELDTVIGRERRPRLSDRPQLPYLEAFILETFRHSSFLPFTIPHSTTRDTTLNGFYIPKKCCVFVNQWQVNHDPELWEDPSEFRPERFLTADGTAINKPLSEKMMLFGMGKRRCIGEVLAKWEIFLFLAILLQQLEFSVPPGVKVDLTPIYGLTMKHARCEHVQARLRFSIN
Description: as §1, §2, §3

CYP2C9 = target: T4, CYP2C9 (Homo sapiens, UniProt P11712); assay: CYP inhibition test (CYP2C9); type: in vitro ADME; settings: pooled human hepatic microsome, tolbutamide methyl-hydroxylation
T4 construct: Enzyme, pooled human hepatic microsome 0.2 mg protein/mL; from tissue; host or cells: pooled human hepatic microsomes
Description: as §1, §2, §3

CYP3A4 = CYP3A4 (Homo sapiens, UniProt P08684); assay: CYP inhibition test (CYP3A4); type: in vitro ADME; parameters: Enzyme, pooled human hepatic microsome 0.2 mg protein/mL; from tissue; host or cells: pooled human hepatic microsomes; settings: pooled human hepatic microsome, terfenedine hydroxylation
Description: as §1, §2, §3

CYP2D6 = target: T5, CYP2D6 (Homo sapiens, UniProt P10635); assay: CYP inhibition test (CYP2D6); type: in vitro ADME; settings: pooled human hepatic microsome, dextromethorphan O-demethylation
T5 construct: Enzyme, pooled human hepatic microsome 0.2 mg protein/mL; from tissue; host or cells: pooled human hepatic microsomes
Description: as §1, §2, §3

T1 sequence (P56817 46-501): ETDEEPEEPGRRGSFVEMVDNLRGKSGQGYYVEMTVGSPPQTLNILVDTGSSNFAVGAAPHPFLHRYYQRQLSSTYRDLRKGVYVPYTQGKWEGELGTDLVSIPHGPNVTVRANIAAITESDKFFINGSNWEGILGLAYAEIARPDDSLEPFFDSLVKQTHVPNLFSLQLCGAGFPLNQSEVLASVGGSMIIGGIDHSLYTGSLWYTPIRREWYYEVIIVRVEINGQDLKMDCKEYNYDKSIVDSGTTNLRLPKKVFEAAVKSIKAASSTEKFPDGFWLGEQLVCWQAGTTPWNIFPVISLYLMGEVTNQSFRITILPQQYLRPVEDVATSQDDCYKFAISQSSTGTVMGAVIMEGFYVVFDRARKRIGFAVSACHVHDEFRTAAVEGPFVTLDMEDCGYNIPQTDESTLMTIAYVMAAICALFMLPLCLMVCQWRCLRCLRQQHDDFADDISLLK
Sequence of CYP3A4 (P08684 whole entry): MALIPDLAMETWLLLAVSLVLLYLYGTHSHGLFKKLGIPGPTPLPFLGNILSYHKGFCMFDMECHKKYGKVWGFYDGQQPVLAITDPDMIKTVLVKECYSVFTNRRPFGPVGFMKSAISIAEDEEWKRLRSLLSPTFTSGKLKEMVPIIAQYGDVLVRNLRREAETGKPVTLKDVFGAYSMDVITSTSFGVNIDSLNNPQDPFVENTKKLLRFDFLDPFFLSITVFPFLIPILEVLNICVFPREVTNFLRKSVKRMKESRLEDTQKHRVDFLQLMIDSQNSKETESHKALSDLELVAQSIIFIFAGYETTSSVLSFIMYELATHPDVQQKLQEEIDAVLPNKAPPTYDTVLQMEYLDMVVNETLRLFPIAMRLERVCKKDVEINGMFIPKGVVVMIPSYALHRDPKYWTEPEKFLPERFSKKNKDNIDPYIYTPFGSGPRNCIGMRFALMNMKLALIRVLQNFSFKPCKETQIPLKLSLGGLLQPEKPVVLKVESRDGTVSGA
T2 sequence (P33261 whole entry): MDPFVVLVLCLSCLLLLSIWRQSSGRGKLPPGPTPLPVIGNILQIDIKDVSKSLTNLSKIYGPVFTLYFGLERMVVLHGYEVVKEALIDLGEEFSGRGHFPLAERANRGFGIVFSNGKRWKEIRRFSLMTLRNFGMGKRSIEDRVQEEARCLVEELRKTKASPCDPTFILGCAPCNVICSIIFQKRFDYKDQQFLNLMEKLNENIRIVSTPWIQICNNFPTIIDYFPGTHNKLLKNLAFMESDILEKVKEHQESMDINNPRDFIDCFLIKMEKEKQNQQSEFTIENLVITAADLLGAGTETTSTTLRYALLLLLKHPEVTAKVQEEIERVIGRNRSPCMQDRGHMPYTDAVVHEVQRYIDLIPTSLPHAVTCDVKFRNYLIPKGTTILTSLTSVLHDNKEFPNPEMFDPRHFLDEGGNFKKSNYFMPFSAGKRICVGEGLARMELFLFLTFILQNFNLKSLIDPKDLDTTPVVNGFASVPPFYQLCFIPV
T5 sequence (P10635 whole entry): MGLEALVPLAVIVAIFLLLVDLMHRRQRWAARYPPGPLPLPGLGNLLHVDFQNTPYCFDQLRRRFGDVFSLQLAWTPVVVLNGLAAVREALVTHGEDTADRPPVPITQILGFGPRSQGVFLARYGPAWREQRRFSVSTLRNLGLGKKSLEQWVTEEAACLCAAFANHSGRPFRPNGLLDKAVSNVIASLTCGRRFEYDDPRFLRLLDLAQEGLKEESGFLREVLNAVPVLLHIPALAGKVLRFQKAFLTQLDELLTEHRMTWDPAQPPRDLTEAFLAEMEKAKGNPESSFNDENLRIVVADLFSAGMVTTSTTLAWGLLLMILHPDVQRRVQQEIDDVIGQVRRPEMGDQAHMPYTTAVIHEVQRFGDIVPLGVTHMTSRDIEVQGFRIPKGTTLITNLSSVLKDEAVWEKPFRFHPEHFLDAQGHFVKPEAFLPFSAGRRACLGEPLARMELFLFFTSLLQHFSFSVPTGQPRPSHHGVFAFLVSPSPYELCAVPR
T4 sequence (P11712 whole entry): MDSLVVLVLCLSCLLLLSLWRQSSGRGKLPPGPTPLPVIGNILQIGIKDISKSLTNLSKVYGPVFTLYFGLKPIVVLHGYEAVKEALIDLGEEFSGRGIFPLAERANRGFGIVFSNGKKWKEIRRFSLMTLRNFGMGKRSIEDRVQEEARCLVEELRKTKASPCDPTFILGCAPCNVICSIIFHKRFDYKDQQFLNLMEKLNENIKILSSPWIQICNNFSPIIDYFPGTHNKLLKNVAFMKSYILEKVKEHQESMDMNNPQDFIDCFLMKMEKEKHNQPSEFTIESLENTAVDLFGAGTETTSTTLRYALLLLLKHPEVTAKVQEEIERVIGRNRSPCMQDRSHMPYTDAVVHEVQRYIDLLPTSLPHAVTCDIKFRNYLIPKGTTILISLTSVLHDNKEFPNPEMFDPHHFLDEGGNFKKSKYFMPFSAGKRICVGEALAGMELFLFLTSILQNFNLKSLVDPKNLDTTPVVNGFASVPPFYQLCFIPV

Row | Compound | solubility at 4 h (Solubility test) [µM] | residual amount of the test compound after the reaction (Metabolic stability test) [%] | IC50 (Recombinant human BACE1) [µM] | bioavailability (BA test) [%] | IC50 [1] [µM] | IC50 (CYP2C19) [µM] | IC50 (CYP1A2) [µM] | IC50 (CYP2C9) [µM] | IC50 (CYP3A4) [µM] | IC50 (CYP2D6) [µM]
1 | CO/C(N)=N\c1cccc2ncc(NC(=O)c3ccc(C#N)cn3)cc12 [Compound 76] | > 40 | 98.9 | – | – | – | – | – | – | – | –
2 | CO/C(N)=N\c1c(C)ccc2ccc(NC(=O)c3ccc(C#N)cn3)cc12 [Compound 77] | – | – | ≤ 1 | 75 | ≤ 1 | – | – | – | – | –
3 | CO/C(N)=N/C(c1ccc(F)cc1)c1cccc(NC(=O)c2ccc(C#N)cn2)c1 (centres unmarked) [Compound 50] | – | 100 | 0.188 | – | ≤ 1 | – | – | – | – | –
4 | N#Cc1ccc(C(=O)Nc2cccc(C/N=C(\N)OCCCO)c2)nc1 [Compound 36] | – | – | – | – | ≤ 1 | > 20 | > 20 | > 20 | > 20 | > 20
5 | CO/C(N)=N/C(c1ccccc1)c1cccc(NC(=O)c2ccc(C#N)cn2)c1 (centres unmarked) [Compound 48] | – | – | ≤ 1 | 87.2 | ≤ 1 | – | – | – | – | –
6 | CO/C(N)=N\C1(c2cccc(NC(=O)c3cnc(C)cn3)c2)CC1 [Compound 41] | – | – | – | – | ≤ 1 | > 20 | > 20 | > 20 | > 20 | > 20

Reference: US20120015961A1, “ISOTHIOUREA DERIVATIVES OR ISOUREA DERIVATIVES HAVING BACE1 INHIBITORY ACTIVITY” (SHIONOGI & CO., LTD., priority 2009, published 2012)
